Assay results as given in ChEMBL document CHEMBL1201862, “PubChem BioAssay data set” (2004).
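In this assay, cells in 96-well plates receive the compound at five concentrations for 48 hours. Endpoints are linearly interpolated between the surrounding concentrations. GI50 = concentration required for 50% inhibition of growth.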 Active and inactive are the calls of the source. Rule as the data show it: active = GI50 up to about 1.1 µM and inactive = higher.

Legend:
Assay in all cases: DTP human tumour cell line panel, 48 h
A549 = system: A549
HCC 2998 = system: HCC 2998
HCT-116 = system: HCT-116
HOP-62 = system: HOP-62
HOP-92 = system: HOP-92
K562 = system: K562
MCF7 = system: MCF7
MOLT-4 = system: MOLT-4
NCI-H23 = system: NCI-H23
OVCAR-3 = system: OVCAR-3
OVCAR-5 = system: OVCAR-5
SF-539 = system: SF-539
SK-MEL-28 = system: SK-MEL-28
SK-MEL-2 = system: SK-MEL-2
SN12C = system: SN12C
SNB-19 = system: SNB-19
SW-620 = system: SW-620
TK-10 = system: TK-10
UACC-62 = system: UACC-62
DLD-1 = system: DLD-1

SMILES | GI50 (A549) | GI50 (HCC 2998) | GI50 (HCT-116) | GI50 (HOP-62) | GI50 (HOP-92) | GI50 (K562) | GI50 (MCF7) | GI50 (MOLT-4) | GI50 (NCI-H23) | GI50 (OVCAR-3) | GI50 (OVCAR-5) | GI50 (SF-539) | GI50 (SK-MEL-28) | GI50 (SK-MEL-2) | GI50 (SN12C) | GI50 (SNB-19) | GI50 (SW-620) | GI50 (TK-10) | GI50 (UACC-62) | GI50 (DLD-1)
Clc1ccc(-c2cn3c(nc4ccccc43)c(-c3ccccc3)n2)cc1 | 17.4 µM (inactive) | 44.9 µM (inactive) | 29.9 µM (inactive) | 11.5 µM (inactive) | 18 µM (inactive) | > 84.7 µM (inactive) | 28.1 µM (inactive) | > 100 µM (inactive) | 24.5 µM (inactive) | 27.7 µM (inactive) | > 38.9 µM (inactive) | 22.3 µM (inactive) | 39.8 µM (inactive) | 14.1 µM (inactive) | 36.5 µM (inactive) | 13.9 µM (inactive) | 43.3 µM (inactive) | 22 µM (inactive) | 11.4 µM (inactive) | –
COC(=O)/C=C(C)/C=C/c1cc(C(C)=O)c(C)o1 | 66.7 µM (inactive) | > 100 µM (inactive) | > 100 µM (inactive) | > 100 µM (inactive) | 23.2 µM (inactive) | 62.1 µM (inactive) | – | 62.5 µM (inactive) | > 100 µM (inactive) | > 100 µM (inactive) | 78.7 µM (inactive) | > 100 µM (inactive) | – | > 100 µM (inactive) | – | > 100 µM (inactive) | > 100 µM (inactive) | – | 82 µM (inactive) | 43.8 µM (inactive)
CC(C)C(NCc1c2ccccc2[n+]([O-])c2ccccc12)C(=O)O (stereo unspecified) | > 100 µM (inactive) | > 100 µM (inactive) | 25.3 µM (inactive) | > 100 µM (inactive) | 1.8 µM (inactive) | 32.1 µM (inactive) | – | 26.2 µM (inactive) | 44.1 µM (inactive) | 93.1 µM (inactive) | > 100 µM (inactive) | – | 44.7 µM (inactive) | 81.1 µM (inactive) | 44.8 µM (inactive) | 53.3 µM (inactive) | 48.6 µM (inactive) | > 100 µM (inactive) | 56.6 µM (inactive) | 36.4 µM (inactive)
CC(=O)O[C@H]1CC[C@@]2(C)C(=CC[C@@H]3C2CC[C@]2(C)Nc4oncc4CC32)C1 (stereo partly specified) | 28.4 µM (inactive) | > 100 µM (inactive) | 15.5 µM (inactive) | 49.2 µM (inactive) | – | 6.68 µM (inactive) | – | 10.7 µM (inactive) | 44 µM (inactive) | 16.3 µM (inactive) | > 100 µM (inactive) | 44.9 µM (inactive) | 37.2 µM (inactive) | 44.5 µM (inactive) | – | – | 43.3 µM (inactive) | 49.2 µM (inactive) | 27.5 µM (inactive) | 46 µM (inactive)
Cc1n[nH]c(=O)n1-n1cccc1 | > 100 µM (inactive) | > 100 µM (inactive) | > 100 µM (inactive) | > 100 µM (inactive) | > 100 µM (inactive) | > 100 µM (inactive) | > 100 µM (inactive) | > 100 µM (inactive) | > 100 µM (inactive) | > 100 µM (inactive) | > 100 µM (inactive) | > 100 µM (inactive) | > 100 µM (inactive) | > 100 µM (inactive) | > 100 µM (inactive) | > 100 µM (inactive) | > 100 µM (inactive) | > 100 µM (inactive) | > 100 µM (inactive) | –
CCOC(=O)NC(Nc1ccc(F)c(F)c1)(C(=O)OCC)C(F)(F)F (stereo unspecified) | > 100 µM (inactive) | > 100 µM (inactive) | > 40.8 µM (inactive) | > 100 µM (inactive) | > 100 µM (inactive) | 17.8 µM (inactive) | > 100 µM (inactive) | > 100 µM (inactive) | > 100 µM (inactive) | > 100 µM (inactive) | > 100 µM (inactive) | > 100 µM (inactive) | > 100 µM (inactive) | 17.5 µM (inactive) | > 100 µM (inactive) | > 100 µM (inactive) | 17.4 µM (inactive) | > 100 µM (inactive) | 0.186 µM (active) | –
Cc1ccc(C(O)/C(=N/N)c2nc3ccc([N+](=O)[O-])cc3nc2O)cc1 (stereo unspecified) | > 100 µM (inactive) | 4.66 µM (inactive) | > 100 µM (inactive) | > 100 µM (inactive) | > 100 µM (inactive) | 22.6 µM (inactive) | – | > 100 µM (inactive) | > 100 µM (inactive) | > 100 µM (inactive) | > 100 µM (inactive) | – | > 100 µM (inactive) | > 100 µM (inactive) | > 100 µM (inactive) | > 100 µM (inactive) | > 100 µM (inactive) | > 100 µM (inactive) | 46.8 µM (inactive) | > 100 µM (inactive)
CCCCCN(CCCCC)C(=O)[C@H](CCC(=O)OCc1ccccc1)NC(=O)c1cc2ccccc2[nH]1 | > 100 µM (inactive) | > 100 µM (inactive) | > 100 µM (inactive) | > 100 µM (inactive) | > 100 µM (inactive) | > 100 µM (inactive) | – | > 100 µM (inactive) | > 100 µM (inactive) | > 100 µM (inactive) | > 100 µM (inactive) | > 100 µM (inactive) | > 100 µM (inactive) | > 100 µM (inactive) | > 100 µM (inactive) | > 100 µM (inactive) | > 100 µM (inactive) | – | > 100 µM (inactive) | > 100 µM (inactive)
COc1ccc(C(=O)c2sc(N(C)C)nc2-c2ccccc2)cc1 | 36 µM (inactive) | 18.2 µM (inactive) | 31 µM (inactive) | 20.6 µM (inactive) | 91.6 µM (inactive) | 35.4 µM (inactive) | 21.6 µM (inactive) | 81.3 µM (inactive) | 34.5 µM (inactive) | 16.8 µM (inactive) | 36.7 µM (inactive) | 58.7 µM (inactive) | 32.1 µM (inactive) | 22.5 µM (inactive) | 39.6 µM (inactive) | 64.3 µM (inactive) | 30.9 µM (inactive) | 37.9 µM (inactive) | 30.8 µM (inactive) | –
CSc1ncc2c(C#N)c3sc4ccccc4n3c(=O)c2n1 | 78.3 µM (inactive) | > 100 µM (inactive) | > 100 µM (inactive) | 30.4 µM (inactive) | > 100 µM (inactive) | > 100 µM (inactive) | 16.8 µM (inactive) | > 100 µM (inactive) | > 100 µM (inactive) | > 100 µM (inactive) | > 100 µM (inactive) | 40.1 µM (inactive) | > 100 µM (inactive) | > 100 µM (inactive) | > 100 µM (inactive) | 37.8 µM (inactive) | 22 µM (inactive) | 61.1 µM (inactive) | > 100 µM (inactive) | –
CCCCOC(=O)Nc1ccc(S(=O)(=O)Nc2c(Cl)cccc2Cl)cc1 | 37.4 µM (inactive) | 23.9 µM (inactive) | 26.5 µM (inactive) | 49 µM (inactive) | 24.2 µM (inactive) | 19.6 µM (inactive) | 30.8 µM (inactive) | 24.3 µM (inactive) | 40.9 µM (inactive) | 26.3 µM (inactive) | 42 µM (inactive) | 29.4 µM (inactive) | 24.4 µM (inactive) | 26.9 µM (inactive) | 34.1 µM (inactive) | 39.7 µM (inactive) | 24.4 µM (inactive) | 36.6 µM (inactive) | 21.2 µM (inactive) | –
COC(=O)C(C(=O)C(=O)Nc1cccc([N+](=O)[O-])c1)c1nc2ccc([N+](=O)[O-])cc2nc1O (stereo unspecified) | > 100 µM (inactive) | > 100 µM (inactive) | > 100 µM (inactive) | > 100 µM (inactive) | – | > 100 µM (inactive) | – | > 100 µM (inactive) | > 100 µM (inactive) | > 100 µM (inactive) | > 100 µM (inactive) | > 100 µM (inactive) | > 100 µM (inactive) | > 100 µM (inactive) | > 100 µM (inactive) | > 100 µM (inactive) | > 100 µM (inactive) | > 100 µM (inactive) | > 100 µM (inactive) | > 100 µM (inactive)
O=C(Cn1c(C(=O)/C=C/c2ccc(Cl)c(Cl)c2)nc2ccccc21)c1ccccc1 | 21.7 µM (inactive) | 17.8 µM (inactive) | 15.9 µM (inactive) | 26 µM (inactive) | 25.2 µM (inactive) | 33.7 µM (inactive) | 26.9 µM (inactive) | 27.9 µM (inactive) | 31.6 µM (inactive) | 15.2 µM (inactive) | 17.6 µM (inactive) | 21.9 µM (inactive) | 35.3 µM (inactive) | 19.8 µM (inactive) | 16 µM (inactive) | 27.4 µM (inactive) | 33.3 µM (inactive) | 27.9 µM (inactive) | 31 µM (inactive) | –
COc1cc([C@@H]2OCC3C(c4ccc5c(c4)OCO5)OCC32)cc(OC)c1OC (stereo partly specified) | 71.3 µM (inactive) | > 100 µM (inactive) | 66.7 µM (inactive) | > 100 µM (inactive) | 8.97 µM (inactive) | 54.1 µM (inactive) | – | 45.5 µM (inactive) | 43.4 µM (inactive) | > 100 µM (inactive) | > 100 µM (inactive) | > 100 µM (inactive) | > 100 µM (inactive) | > 100 µM (inactive) | > 100 µM (inactive) | 47.8 µM (inactive) | > 100 µM (inactive) | – | – | > 100 µM (inactive)
CN1C(=O)CSC1=S [3-METHYL-RHODANINE] | > 100 µM (inactive) | – | > 100 µM (inactive) | > 100 µM (inactive) | > 100 µM (inactive) | > 100 µM (inactive) | – | > 100 µM (inactive) | > 100 µM (inactive) | > 100 µM (inactive) | > 100 µM (inactive) | > 100 µM (inactive) | > 100 µM (inactive) | > 100 µM (inactive) | > 100 µM (inactive) | – | > 100 µM (inactive) | > 100 µM (inactive) | > 100 µM (inactive) | > 100 µM (inactive)
